The source of these data is US12252524B2, “GIP/GLP1 co-agonist compounds” (Eli Lilly and Company, priority 2018, dated 2025).

The target of assay [1] is T1, gastric inhibitory peptide receptor (GIPR) (Homo sapiens, UniProt P48546).
T1 sequence (P48546 22-466): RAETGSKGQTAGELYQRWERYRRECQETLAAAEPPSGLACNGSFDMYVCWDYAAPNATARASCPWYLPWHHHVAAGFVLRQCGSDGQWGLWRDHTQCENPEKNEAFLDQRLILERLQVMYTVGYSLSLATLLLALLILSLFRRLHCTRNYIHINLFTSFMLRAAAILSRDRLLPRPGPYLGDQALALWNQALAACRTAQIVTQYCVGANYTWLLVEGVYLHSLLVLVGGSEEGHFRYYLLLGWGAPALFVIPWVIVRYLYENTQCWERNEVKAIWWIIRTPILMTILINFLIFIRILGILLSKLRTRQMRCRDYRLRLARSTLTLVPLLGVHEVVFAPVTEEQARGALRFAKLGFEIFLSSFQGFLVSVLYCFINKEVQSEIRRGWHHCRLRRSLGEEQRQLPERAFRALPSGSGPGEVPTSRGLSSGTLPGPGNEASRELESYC
In words: cAMP pharmacological functional assay in presence of casein, hGIPR. Format: cell-based. Conditions: HEK293 cells expressing hGIPR, 0.1% Casein, geometric mean; read-out: hGIPR cAMP Rel EC50 nM (SEM, n).

Assay [2] deals with T2, human GLP-1R (Homo sapiens, UniProt P43220). The experiment in a line: GLP-1R HEK293 cell membrane [35S]GTPγS binding assay. Format: biochemical. The arrangement: expressed in transfected cells; host or cells: HEK293 cells expressing human GLP-1R; membranes. The conditions noted are these: HEK293 cell membranes expressing human GLP-1R, [35S]GTPγS binding; read-out: hGLP1R GTPgS Rel EC50 nM (SEM, n). In a few lines:
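Agonist-driven Gαs activation read as [35S]GTPγS ([…]) binding to receptor-expressing HEK293 membranes, 30 min at room temperature, pH 7.4. Detection by anti-Gαs immunocapture on scintillation beads; EC50 derived from four-parameter logistic concentration-response fit.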
Background: GTPγS resists hydrolysis and so accumulates on activated G proteins.

The target of assay [3] is T2, human GLP-1R. The experiment in a line: GLP-1R CHO cell β-arrestin recruitment assay. Format: cell-based. The conditions noted are these: for EC50: CHO-K1 cells, PathHunter β-arrestin-2 recruitment, 0.1% casein, read-out: hGLP1R B-Arrestin2 Rel EC50 uM (SEM, n); for hGLP1R B-Arrestin2 % Top: normalized to GLP-1 maximum control. Set-up: host or cells: CHO-K1 PathHunter cells, assay-ready frozen. In a few lines:
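Peptide-induced β-arrestin-2 recruitment measured by enzyme-fragment complementation luminescence after 90 min at 37 °C plus 60 min detection at RT.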

The target of assay [4] is T3, human GIP receptor (Homo sapiens, UniProt P48546).
T3 construct: expressed in transfected cells; crude membranes
T3 sequence (P48546 22-466): T1 sequence (P48546 22-466)
In words: [125I]-GIP binding (SPA), human GIP receptor. The conditions noted are these: read-out: hGIPR Ki, nM (SEM, n).

The target in assay [5] is T2, human GLP-1R. In words: [125I]-GLP-1 binding (SPA), human GLP-1 receptor. Conditions: read-out: hGLP1R Ki, (nM) (SEM, n). The arrangement: expressed in transfected cells; crude membranes. In a few lines: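 Ki values are geometric means with SEM over independent replicates on different days, derived from IC50s fitted by four-parameter nonlinear regression. The assay used crude cell membranes in HEPES buffer, pH 7.4, containing CaCl2, MgCl2, bacitracin and TWEEN-20.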

For assay [6], the target named is human GLP-1 receptor (GLP-1R) (Homo sapiens, UniProt P43220). In words: cAMP pharmacological functional assay in presence of casein, hGLP-1R. Conditions: HEK293 cells expressing hGLP-1R, 0.1% Casein, geometric mean; read-out: hGLP1R cAMP Rel EC50 nM (SEM, n). Format: cell-based.
Assay [7] has as its target T4, human Gcg receptor (Homo sapiens, UniProt P47871).
T4 construct: expressed in transfected cells; crude membranes
The experiment in a line: [125I]-Glucagon binding (SPA), human Gcg receptor. The conditions noted are these: read-out: hGLcgR Ki, nM (SEM, n). In a few lines: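 Crude membranes from cells expressing the receptor, prepared by hypotonic lysis in 50 mM Tris HCl pH 7.5 with protease inhibitors, homogenization and differential centrifugation, were used in a WGA-bead SPA. Binding buffer: 25 mM HEPES pH 7.4, 2.5 mM CaCl2, 1 mM MgCl2, bacitracin, Tween-20.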

Numbered stars: 1 amine (or outer) side, 2 acyl side, 3 side chain; on linkers, the order of the positions; unused ones are H or OH. Square brackets hold non-standard residues; d marks the D form. Side chains are listed from the residue outwards. Peptide text beside a SMILES is read from it. * marks the point of attachment. C20 diacid = O=C(O)CCCCCCCCCCCCCCCCCCC(=O)*; γGlu = O=C(O)[C@H](CCC(=O)[*:2])N[*:1]; αMeL = CC(C)C[C@](C)(N)C(=O)O; AEEA = NCCOCCOCC(=O)O; Aib = CC(C)(N)C(=O)O

T2 sequence (P43220 24-463): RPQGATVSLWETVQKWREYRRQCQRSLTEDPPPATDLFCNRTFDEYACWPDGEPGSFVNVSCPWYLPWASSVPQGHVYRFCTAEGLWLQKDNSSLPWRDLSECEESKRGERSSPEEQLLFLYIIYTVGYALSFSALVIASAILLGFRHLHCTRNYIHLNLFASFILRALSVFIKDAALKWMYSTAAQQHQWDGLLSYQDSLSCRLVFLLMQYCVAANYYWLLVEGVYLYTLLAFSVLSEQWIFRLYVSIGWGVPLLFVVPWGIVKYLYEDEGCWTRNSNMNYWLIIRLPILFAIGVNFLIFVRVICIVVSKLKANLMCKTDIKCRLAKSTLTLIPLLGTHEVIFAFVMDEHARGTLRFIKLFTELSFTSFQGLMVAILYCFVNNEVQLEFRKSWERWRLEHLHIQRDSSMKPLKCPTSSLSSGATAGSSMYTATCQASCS
human GLP-1 receptor (GLP-1R), sequence (P43220 24-463): as above
T4 sequence (P47871 26-477): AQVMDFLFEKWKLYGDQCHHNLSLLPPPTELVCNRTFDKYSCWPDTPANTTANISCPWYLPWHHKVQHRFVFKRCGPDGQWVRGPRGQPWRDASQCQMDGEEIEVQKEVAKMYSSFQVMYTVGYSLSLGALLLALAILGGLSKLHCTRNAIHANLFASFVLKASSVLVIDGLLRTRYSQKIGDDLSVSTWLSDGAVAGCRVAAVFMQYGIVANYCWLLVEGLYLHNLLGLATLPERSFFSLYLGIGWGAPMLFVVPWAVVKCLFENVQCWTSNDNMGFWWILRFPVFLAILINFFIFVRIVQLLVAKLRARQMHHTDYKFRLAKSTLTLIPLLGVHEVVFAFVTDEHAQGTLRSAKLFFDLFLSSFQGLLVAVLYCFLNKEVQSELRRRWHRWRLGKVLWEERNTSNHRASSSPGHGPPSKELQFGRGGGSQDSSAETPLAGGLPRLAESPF

Broadly, the EC50 is the concentration that produces a half-maximal response. One may read the Ki as the dissociation constant of the complex between target and ligand, obtained from inhibition or displacement. For the molecule `CC[C@H](C)[C@H](NC(=O)[C@H](CC(C)C)NC(=O)[C@H](Cc1ccc(O)cc1)NC(=O)[C@H](CCC(=O)O)NC(=O)[C@@H](NC(=O)[C@H](Cc1ccccc1)NC(=O)[C@H](CCC(=O)O)NC(=O)C(C)(C)NC(=O)[C@H](CCC(N)=O)NC(=O)[C@H](C)NC(=O)[C@H](CCCCNC(=O)COCCOCCNC(=O)CC[C@H](NC(=O)CCCCCCCCCCCCCCCCCCC(=O)O)C(=O)O)NC(=O)[C@H](CCCCN)NC(=O)[C@H](CC(=O)O)NC(=O)[C@H](CC(C)C)NC(=O)[C@](C)(CC(C)C)NC(=O)[C@@H](NC(=O)[C@H](CO)NC(=O)[C@H](Cc1ccc(O)cc1)NC(=O)[C@H](CC(=O)O)NC(=O)[C@H](CO)NC(=O)[C@@H](NC(=O)[C@H](Cc1ccccc1)NC(=O)[C@@H](NC(=O)CNC(=O)[C@H](CCC(=O)O)NC(=O)C(C)(C)NC(=O)[C@@H](N)Cc1ccc(O)cc1)[C@@H](C)O)[C@@H](C)O)[C@@H](C)CC)[C@@H](C)CC)C(=O)N[C@@H](C)C(=O)NCC(=O)NCC(=O)N1CCC[C@H]1C(=O)N[C@@H](CO)C(=O)N[C@@H](CO)C(=O)NCC(=O)N[C@@H](C)C(=O)N1CCC[C@H]1C(=O)N1CCC[C@H]1C(=O)N1CCC[C@H]1C(=O)N[C@@H](CO)C(N)=O` [Example 339] (H-Y[Aib]EGTFTSDYSI[αMeL]LDKK([AEEA-γGlu-C20 diacid])AQ[Aib]EFIEYLIAGGPSSGAPPPS-NH2), the half-maximal effective concentration (EC50) in assay [1] came to 0.0219 nM; in assay [2] it was 0.326 nM; in assay [3], 0.0107 µM; in assay [6] it was 0.0986 nM. Also, the “hGLP1R B-Arrestin2 % Top” value in assay [3] amounted to 44.0%. Besides, the figures for the inhibition constant (Ki) in assay [4], in assay [5] and in assay [7] were 0.0388 nM, 2.69 nM and 873 nM, respectively.

For the molecule `CC[C@H](C)[C@H](NC(=O)[C@H](CC(C)C)NC(=O)[C@H](Cc1ccc(O)cc1)NC(=O)[C@H](CCC(=O)O)NC(=O)[C@@H](NC(=O)[C@H](Cc1ccccc1)NC(=O)[C@H](C)NC(=O)C(C)(C)NC(=O)[C@H](CCC(N)=O)NC(=O)[C@H](C)NC(=O)[C@H](CCCCNC(=O)COCCOCCNC(=O)COCCOCCNC(=O)CC[C@H](NC(=O)CCCCCCCCCCCCCCCCCCC(=O)O)C(=O)O)NC(=O)[C@H](CCCCN)NC(=O)[C@H](CC(=O)O)NC(=O)[C@H](CC(C)C)NC(=O)[C@](C)(CC(C)C)NC(=O)[C@@H](NC(=O)[C@H](CO)NC(=O)[C@H](Cc1ccc(O)cc1)NC(=O)[C@H](CC(=O)O)NC(=O)[C@H](CO)NC(=O)[C@@H](NC(=O)[C@H](Cc1ccccc1)NC(=O)[C@@H](NC(=O)CNC(=O)[C@H](CCC(=O)O)NC(=O)C(C)(C)NC(=O)[C@H](N)Cc1ccc(O)cc1)[C@@H](C)O)[C@@H](C)O)[C@@H](C)CC)[C@@H](C)CC)C(=O)N[C@@H](C)C(=O)NCC(=O)NCC(=O)N1CCC[C@H]1C(=O)N[C@@H](CO)C(=O)N[C@@H](CO)C(=O)NCC(=O)N[C@@H](C)C(=O)N1CCC[C@H]1C(=O)N1CCC[C@H]1C(=O)N1CCC[C@H]1C(=O)N[C@@H](CO)C(N)=O` [Example 340] (H-[dY][Aib]EGTFTSDYSI[αMeL]LDKK([AEEA-AEEA-γGlu-C20 diacid])AQ[Aib]AFIEYLIAGGPSSGAPPPS-NH2), the concentration for a half-maximal effect (EC50) is 0.0823 nM in assay [1], 0.45 nM in assay [2], 0.0107 µM in assay [3] and 0.252 nM in assay [6]. The “hGLP1R B-Arrestin2 % Top” value in assay [3] worked out at 20.1%. For the same molecule, the inhibition constant (Ki) in assay [4] amounted to 0.0507 nM; in assay [5] it was 2.08 nM; in assay [7], 250 nM.

Take `CC[C@H](C)[C@H](NC(=O)[C@H](CC(C)C)NC(=O)[C@H](Cc1ccc(O)cc1)NC(=O)[C@H](CCC(=O)O)NC(=O)[C@@H](NC(=O)[C@H](Cc1ccccc1)NC(=O)[C@H](C)NC(=O)C(C)(C)NC(=O)[C@H](CCC(N)=O)NC(=O)[C@H](C)NC(=O)[C@H](CCCCNC(=O)COCCOCCNC(=O)COCCOCCNC(=O)CC[C@H](NC(=O)CCCCCCCCCCCCCCCCCCC(=O)O)C(=O)O)NC(=O)[C@H](CCC(=O)O)NC(=O)[C@H](CC(=O)O)NC(=O)[C@H](CC(C)C)NC(=O)[C@](C)(CC(C)C)NC(=O)[C@@H](NC(=O)[C@H](CO)NC(=O)[C@H](Cc1ccc(O)cc1)NC(=O)[C@H](CC(=O)O)NC(=O)[C@H](CO)NC(=O)[C@@H](NC(=O)[C@H](Cc1ccccc1)NC(=O)[C@@H](NC(=O)CNC(=O)[C@H](CCC(=O)O)NC(=O)C(C)(C)NC(=O)[C@H](N)Cc1ccc(O)cc1)[C@@H](C)O)[C@@H](C)O)[C@@H](C)CC)[C@@H](C)CC)C(=O)N[C@@H](C)C(=O)NCC(=O)NCC(=O)N1CCC[C@H]1C(=O)N[C@@H](CO)C(=O)N[C@@H](CO)C(=O)NCC(=O)N[C@@H](C)C(=O)N1CCC[C@H]1C(=O)N1CCC[C@H]1C(=O)N1CCC[C@H]1C(=O)N[C@@H](CO)C(N)=O` [Example 341] (H-[dY][Aib]EGTFTSDYSI[αMeL]LDEK([AEEA-AEEA-γGlu-C20 diacid])AQ[Aib]AFIEYLIAGGPSSGAPPPS-NH2; N-terminus assumed): the EC50 is 0.238 nM in assay [1], 0.496 nM in assay [2], 0.0188 µM in assay [3] and 0.373 nM in assay [6]. For the same molecule, the “hGLP1R B-Arrestin2 % Top” value in assay [3] is reported as 21.9%. Also, the values for the Ki in assay [4], in assay [5] and in assay [7] were 0.0559 nM, 6.49 nM and 39.7 nM, respectively.

In the case of `CC[C@H](C)[C@H](NC(=O)[C@H](CC(C)C)NC(=O)[C@H](Cc1ccc(O)cc1)NC(=O)[C@H](CCC(=O)O)NC(=O)[C@@H](NC(=O)[C@H](Cc1ccccc1)NC(=O)[C@H](CCC(=O)O)NC(=O)C(C)(C)NC(=O)[C@H](CCC(N)=O)NC(=O)[C@H](C)NC(=O)[C@H](CCCCNC(=O)COCCOCCNC(=O)COCCOCCNC(=O)CC[C@H](NC(=O)CCCCCCCCCCCCCCCCCCC(=O)O)C(=O)O)NC(=O)[C@H](CCC(=O)O)NC(=O)[C@H](CC(=O)O)NC(=O)[C@H](CC(C)C)NC(=O)[C@](C)(CC(C)C)NC(=O)[C@@H](NC(=O)[C@H](CO)NC(=O)[C@H](Cc1ccc(O)cc1)NC(=O)[C@H](CC(=O)O)NC(=O)[C@H](CO)NC(=O)[C@@H](NC(=O)[C@H](Cc1ccccc1)NC(=O)[C@@H](NC(=O)CNC(=O)[C@H](CCC(=O)O)NC(=O)C(C)(C)NC(=O)[C@H](N)Cc1ccc(O)cc1)[C@@H](C)O)[C@@H](C)O)[C@@H](C)CC)[C@@H](C)CC)C(=O)N[C@@H](C)C(=O)NCC(=O)NCC(=O)N1CCC[C@H]1C(=O)N[C@@H](CO)C(=O)N[C@@H](CO)C(=O)NCC(=O)N[C@@H](C)C(=O)N1CCC[C@H]1C(=O)N1CCC[C@H]1C(=O)N1CCC[C@H]1C(=O)N[C@@H](CO)C(N)=O` [Example 342] (H-[dY][Aib]EGTFTSDYSI[αMeL]LDEK([AEEA-AEEA-γGlu-C20 diacid])AQ[Aib]EFIEYLIAGGPSSGAPPPS-NH2; N-terminus assumed), the EC50 in assay [1] was found to be 0.159 nM; in assay [2], 0.414 nM; in assay [3] it was 0.035 µM; in assay [6] it was 0.127 nM. For the same molecule, in assay [3], the “hGLP1R B-Arrestin2 % Top” value amounted to 20.7%. The results for the Ki in assay [4], in assay [5] and in assay [7] were 0.129 nM, 15.4 nM and above 1000 nM, respectively.
